Reference: US10683267B1, “Antidiabetic compounds” (King Abdulaziz University, priority 2019, dated 2020)
Entries after “also recorded” stand apart in the source; their conditions may differ. Like-named read-outs stand apart in the source and are kept apart here. Marks after values point to notes of the source that are not given here.

Experiments:
diabetic mice [1] = assay: Fasting blood glucose of diabetic mice treated daily for 6 consecutive days; assay type: in vivo; details: 50 mg/kg oral daily
Description: (§1) The Biochemical and Research Ethical Committee of King Abulaziz University (Jeddah, Saudi Arabia), in accordance with the NIH guidelines, approved all procedures, and the animals received human care during the experimental period. Experiments were carried out using adult male Swiss albino mice (SWR), of 8-9 weeks age and 30-35 g weight. Animals were purchased from the animal house of the King Fahed Medical Research center (KFMRC), Jeddah, Saudi Arabia. Mice were kept at a constant temperature of 24-25° C. and were subjected to a controlled 12 h light-dark cycle; they had free access to water and pelleted diet ad libitum.
(§2) Nicotinamide (210 mg/kg b.w.), dissolved in saline, was injected intraperitoneally 15 min before the intraperitoneal injection of Streptozotocin (STZ) (Sigma, 180 mg/kg b.w.), which was freshly prepared in citrate buffer (pH 4.5). Control animals received both vehicles. During the experimental period, animals' food intake and body weight gain were monitored once a week.
(§3) On the same groups that received the single dose treatment, the tested compounds were given daily by oral gavage for six consecutive days. On day 6, the overnight fasted diabetic mice were pretreated with the 6th oral dose of the tested compounds. Two hours later, an oral glucose was loaded (2 g/kg/10 ml b.w.). Blood glucose levels were determined using the Accu-check Go®. Samples were collected just before drug administration (Fasting Blood glucose), then 2 h after drug treatment and before glucose administration. Samples collection was continued at 20, 40, 60 and 120 min intervals after glucose loading.
The oral glucose tolerance test (OGTT) was performed over six days on diabetic mice. The glucose level was monitored daily (Table 3). The results were analyzed for activities after a single dose (Table 4) and after the 6th dose of the drug (Table 5).

DPP-IV enzyme = molecular target: T1, DPP-IV enzyme (Homo sapiens, UniProt P27487); assay: In vitro DPP-IV inhibition assay (Biovision kit, fluorescence); assay type: biochemical; details: for DPP-4 enzyme inhibition activity, in words: SAR discussion
T1 construct: purchased Biovision (Milpitas, Calif., USA)
Description: DPP-IV inhibition assay was conducted using a kit purchased from Biovision (Milpitas, Calif., USA). Briefly, DPP-IV enzyme was diluted with Tris buffer and pipetted 50 μl into glass mini-cells. […] Finally a volume of 25 μl of DPP-IV substrate was added into each tube. The fluorescence generated from hydrolysis of the substrate was read at Ex/Em=360/460 nm using Modulus® single tube multimode reader (Promega, USA). Baseline fluorescence was recorded before incubation (R1) and 20 min after incubation (R2).
The standard DPP-IV inhibitor drug sitagliptin employed as positive control. […] Sigmoidal concentration-response curves for DPP-IV % inhibition versus log concentration were plotted using Graphpad prism software, version 5.00 (GraphPad Software, Inc. La Jolla, Calif., USA).

diabetic mice [2] = assay: Oral glucose tolerance test (OGTT) after single dose in diabetic mice; assay type: in vivo; details: for R.P. to Vildagliptin (Single Dose): Table 6, relative potency, B.G. = blood glucose; for AUC Δ from diabetic control / AUC of blood glucose in OGTT (X, mean) / AUC % change from diabetic control: single oral dose 50 mg/kg; for AUC of blood glucose in OGTT (X, mean): glucose load 2 g/kg 2 h later, AUC 0-120 min
Description: as §1, §2
Oral glucose tolerance tests were performed in 14 h overnight fasted diabetic mice that were pretreated with a single oral dose of the tested compounds. […] The drugs were suspended in carboxymethyl cellulose (CMC)-Na (1% in distilled water) and the dosing volume was adjusted at 10 mL/kg body weight of the mouse. Then an oral glucose load was administered (2 g/kg) 2 h after drug treatment. Blood glucose levels were determined using the Accu-check Go® (Roche Diagnostics, Michigan, USA). Samples were collected just before drug administration (fasting blood glucose), then at 2 h after drug treatment (immediately before glucose loading). Then blood sample collection was continued at 20, 40, 60 and 120 min intervals after glucose loading.
Animals were distributed between three categories of groups. Each group is composed of six animals (n=6) […] as follows:
Category 1: One group of animals were 14 h overnight-fasted normoglycemic mice and vehicle-treated (1% CMC-Na) at a dose of 10 ml/kg.
Category 2: Another group of animals was overnight fasted diabetic mice received the vehicle (1% CMC-Na) at a dosing volume of 10 ml/kg and served as a negative control.
Category 4: Animals of these groups were overnight fasted diabetic mice received the tested compounds at a dose of 50 mg/kg in 1% CMC (volume of 10 ml/kg).

diabetic mice [3] = assay: Oral glucose tolerance test (OGTT) after multiple doses (6 days) in diabetic mice; assay type: in vivo; details: for AUC % change from diabetic control / AUC Δ from diabetic control / Relative potency to vildagliptin / AUC of blood glucose in OGTT (X, mean): 50 mg/kg oral for 6 days; for Relative potency to vildagliptin: OGTT AUC; for AUC of blood glucose in OGTT (X, mean): glucose load 2 g/kg 2 h after 6th dose, AUC 0-120 min; for R.P. to Vildagliptin (6 Days): Table 6, relative potency, B.G. = blood glucose
Description: as §1, §2, §3

[4] = Table 2, head prints no unit, nM per Table 6, read-out: IC50
[5] = read-out: enzymatic inhibition value / inhibitory activity (IC50)

T1 sequence (P27487 whole entry, species assumed): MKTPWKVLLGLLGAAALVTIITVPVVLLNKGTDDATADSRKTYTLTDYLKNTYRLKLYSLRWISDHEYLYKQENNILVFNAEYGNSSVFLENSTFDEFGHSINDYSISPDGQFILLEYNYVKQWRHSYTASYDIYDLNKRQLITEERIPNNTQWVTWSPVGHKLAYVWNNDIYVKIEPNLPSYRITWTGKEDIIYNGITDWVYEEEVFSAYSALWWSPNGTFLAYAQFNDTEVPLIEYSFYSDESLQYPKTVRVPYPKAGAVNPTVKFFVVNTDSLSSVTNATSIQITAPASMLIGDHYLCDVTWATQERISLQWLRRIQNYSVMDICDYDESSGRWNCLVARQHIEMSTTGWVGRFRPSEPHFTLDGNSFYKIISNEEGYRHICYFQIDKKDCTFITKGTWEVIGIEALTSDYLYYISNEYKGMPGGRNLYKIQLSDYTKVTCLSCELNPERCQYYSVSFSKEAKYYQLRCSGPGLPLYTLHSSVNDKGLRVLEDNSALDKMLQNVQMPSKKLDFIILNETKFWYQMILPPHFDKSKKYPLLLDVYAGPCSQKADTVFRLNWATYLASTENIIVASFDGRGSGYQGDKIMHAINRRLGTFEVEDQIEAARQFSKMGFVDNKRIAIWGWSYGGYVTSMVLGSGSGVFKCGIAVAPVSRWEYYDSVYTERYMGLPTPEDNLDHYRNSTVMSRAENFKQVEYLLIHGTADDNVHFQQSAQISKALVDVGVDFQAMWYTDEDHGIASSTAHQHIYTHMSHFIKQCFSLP

Row | SMILES | Fasting blood glucose level, Day 1 (diabetic mice [1]) | Fasting blood glucose level, Day 2 (diabetic mice [1]) | Fasting blood glucose level, Day 3 (diabetic mice [1]) | Fasting blood glucose level, Day 4 (diabetic mice [1]) | Fasting blood glucose level, Day 5 (diabetic mice [1]) | Fasting blood glucose level, Day 6 (diabetic mice [1]) | DPP-4 enzyme inhibition activity, in words (DPP-IV enzyme) | IC50 (DPP-IV enzyme; [4]) | IC50 (DPP-IV enzyme; Table 6, read-out: IC50) | % Inhibition @ 100 nM (DPP-IV enzyme; compound at 100 nM) | IC50 (DPP-IV enzyme; [5]) | R.P. to Vildagliptin (Single Dose) (diabetic mice [2]) | AUC Δ from diabetic control (diabetic mice [2]) | AUC of blood glucose in OGTT (X, mean) (diabetic mice [2]) | AUC % change from diabetic control (diabetic mice [3]) | AUC Δ from diabetic control (diabetic mice [3]) | Relative potency to vildagliptin (diabetic mice [3]) | AUC of blood glucose in OGTT (X, mean) (diabetic mice [3]) | R.P. to Vildagliptin (6 Days) (diabetic mice [3]) | AUC % change from diabetic control (diabetic mice [2]) | other results
1 | N#Cc1cccc(NC(=O)CNC23CC4CC(CC(C4)C2)C3)c1 [Compound 110] | 165.00 ± mg/dL | 107.20 ± mg/dL | 83.00 ± mg/dL | 105.60 ± mg/dL | 111.80 ± mg/dL | 121.40 mg/dL | high affinity towards the enzyme | 3.02 nM | 3.02 nM | 65.51% | 3 nM | 1.11 | 18801 mg·min/dL | 32264* mg · dL^−1 · min | −30.05% | 15825 mg·min/dL | 0.83 | 36830* mg · dL^−1 · min | 0.27 | – | –
2 | O=C(CNC12CC3CC(CC(C3)C1)C2)Nc1cccc(O)c1 [Compound 111] | 171.00 mg/dL | 122.40 ± mg/dL | 74.80 ± mg/dL | 153.00 ± mg/dL | 141.20 ± mg/dL | 180.20 mg/dL | much better performance | 2.08 nM | 2.08 nM | 79.63% | – | 1.52 | 25735 mg·min/dL | 25330* mg · dL^−1 · min | −9.820% | 6161 mg·min/dL | 0.27 | 47494 mg·min/dL | 0.46 | −50.39% | –
3 | O=C(CNC12CC3CC(CC(C3)C1)C2)Nc1ccc(Cl)cc1 [Compound 112] | 159.20 ± mg/dL | 114.40 ± mg/dL | 84.40 ± mg/dL | 115.40 ± mg/dL | 132.40 ± mg/dL | 122.00 ± mg/dL | high DPP-4 inhibition | 7.41 nM | 7.41 nM | 61.82% | – | 1.14 | 19295 mg·min/dL | 31770* mg · dL^−1 · min | −16.99% | 8947 mg·min/dL | 0.46 | 43708* mg · dL^−1 · min | 0.79 | −37.78% | –
4 | N#Cc1ccc(NC(=O)CNC23CC4CC(CC(C4)C2)C3)cc1 [Compound 118] | 151.00 ± mg/dL | 124.00 ± mg/dL | 117.80 ± mg/dL | 141.00 ± mg/dL | 140.50 ± mg/dL | 151.30 ± mg/dL | high affinity towards the enzyme; also recorded: high DPP-4 inhibition | 6.25 nM | 6.25 nM | 81.14% | – | 1.33 | 22581 mg·min/dL | 28484* mg · dL^−1 · min | −54.25% | 28569 mg·min/dL | 1.50 | 24086* mg · dL^−1 · min | 0.64 | −44.22% | –
5 | O=C(CNC12CC3CC(CC(C3)C1)C2)Nc1ccccn1 [Compound 119, 2-[(adamantan-1-yl)amino]-N-(pyridin-2-yl)acetamide] | 149.60 ± mg/dL | 103.40 ± mg/dL | 104.80 ± mg/dL | 148.60 ± mg/dL | 107.60 ± mg/dL | 118.60 ± mg/dL | best functionality in enzyme inhibition activity | 1.58 nM | 1.58 nM | – | 1.6 nM | 1.417 | 23997 mg·min/dL | 27068* mg · dL^−1 · min | −23.26% | 12250 mg·min/dL | 0.64 | 40405* mg · dL^−1 · min | 1.26 | −46.99% | DPP-4 enzyme inhibition activity, in words (DPP-IV enzyme; listed as GLP-119): high level of potency both in vitro and in vivo; inhibition at 0.1 µM (DPP-IV enzyme; compound at 100 nM): 58%
